In patent US7041486B1, “Enzyme having decolorizing activity and method for decolorizing dyes by using the same” (Meiji Seika Kaisha Ltd., priority 1999, dated 2006):
“Also recorded” adds a separate entry of the source. Read-outs that look alike come from different tables or passages of the source.

Assays:
DyP [1] = experiment: Oxidation of model compounds by DyP (absorbance); format: biochemical, Geotrichum candidum Dec 1; conditions: for Oxidation rate: 2.79 nM DyP, 0.2 mM hydrogen peroxide, 25 mM citrate buffer, pH and initial concentration (mM) as in columns c2, c3, 470 nm or 465 nm; for Degradation by DyP (in words): model compounds of Table 2
Protocol: As the model compounds, additionally, use was made of 2,6-dimethoxyphenol, guaiacol and veratryl alcohol.
As to 2,6-dimethoxyphenol used as a model compound, alternatively, absorbance at 470 nm was calorimetrically measured, which emerged via oxidation.
That is to say, a mixture solution of 2.79 nM DyP and 0.2 mM 2,6-dimethoxyphenol was reacted with 25 mM citrate buffer (pH 4.5) containing 0.2 mM hydrogen peroxide.
As to guaiacol, 1 mM guaiacol was used in place of 0.2 mM 2,6-dimethoxyphenol, for absorbance measurement at 465 nm.

DyP [2] = experiment: Assay of dye-degrading (decolorizing) activity of purified DyP; format: biochemical, Geotrichum candidum Dec 1; conditions: dyes of Table 1
Protocol: The dye-degrading spectrum of the purified DyP was examined for nine types of dyes and three model compounds. The activity of the purified DyP to degrade these dyes or model compounds was assayed by measuring the degradation rates.
As the dyes, use was made of Reactive blue 5, 19 and 114; AQ-1 and AQ-2; Reactive black 5, Reactive red 33, Reactive yellow 2, and Reactive blue 182.
The dye-degrading activity was measured as follows.
0.2 to 0.4 mM aqueous hydrogen peroxide was added to a mixture solution of 3 mL of 25 mM citrate buffer (adjusted to the optimum pH for the degradation of each of the dyes) containing each dye at a fixed […] (30 to 120 ppm) and 1 mL of 1.86 nM DyP solution, to initiate the enzyme reaction. Reaction was performed at 30° C. for a fixed period of time, to assay the reaction rate.
1 U of the dye-degrading activity was defined as the activity to decolorize 1 μmole Reactive blue 5 or AQ-2 for one minute.

DyP [3] = format: biochemical, Geotrichum candidum Dec 1; conditions: for Specific activity (%): 100 ppm Reactive blue 5, no addition = 100
Excerpt: […], zinc, copper (divalent), potassium, iron (divalent) and sodium were concurrently present in a reaction solution comprising DyP and 100 ppm Reactive blue 5, so as to examine the effects of these metal ions on the relative activity of the DyP enzyme.

[4] = Temperature stability of peroxidase (remaining activity after storage); format: physicochemical; conditions: 25 mM citrate buffer
Protocol: After the inventive dye-degrading enzyme DyP was stored at a fixed temperature for a fixed period of time, the ratio of the remaining activity was subsequently evaluated. Specifically, a solution of the dye-degrading enzyme DyP in 25 mM citrate buffer was stored at 30° C. or 40° C. for 14 days.
So as to compare the temperature stability with those of other peroxidases, solutions of individual enzymes in 25 mM citrate buffer were stored at 60° C. for 3 hours, by using a commercially available horse-radish peroxidase (manufactured by Wako Chemical Co., Ltd.; sometimes abbreviated as HRP hereinafter) as the control. Subsequently, the remaining enzyme activities were compared to each other.

Isoelectric focusing = format: physicochemical; conditions: FIG. 2
Protocol: Then, the isoelectric point of the inventive enzyme was measured. The isoelectric point was measured by isoelectric focusing.
For measurement of isoelectric focusing, a low-pI calibration kit of Multiphor II 2-D for pH 2.5 to pH 6.5, manufactured by Pharmacia, Co. was used. Consequently, the isoelectric point of DyP was assayed as 3.8.

COc1cccc(OC)c1O [2,6-Dimethoxyphenol, 2,6-dimethoxyphenol]
Oxidation rate (DyP [1]): 0.29 ΔOD/min | Degradation by DyP (in words) (DyP [1]): could efficiently be degraded

CNc1cc(S(=O)(=O)[O-])c(N)c2c1C(=O)c1ccccc1C2=O.[Na+] [AQ-2, 1-amino-4-methylamino-2-sodium-anthraquinone sulfonate]
Degradation by DyP (in words) (DyP [2]): excellent degradation activity

[Ca+2] [Ca^++, calcium]
Specific activity (%) (DyP [3]; metal ion 5 mM): 81%

[Cu+2] [Cu^++, copper (divalent)]
Specific activity (%) (DyP [3]; metal ion 5 mM): 75%

[Fe+2] [Fe^++, iron (divalent)]
Inhibition of DyP activity (DyP [3]; ion concurrently present at 0.2 mM): 50% | Specific activity (%) (DyP [3]; metal ion 0.2 mM): 50%

COc1ccccc1O [Guaiacol, guaiacol]
Oxidation rate (DyP [1]): 0.29 ΔOD/min | Degradation by DyP (in words) (DyP [1]): could efficiently be degraded

[K+] [K^+, potassium]
Specific activity (%) (DyP [3]; metal ion 5 mM): 81%

[Na+] [Na^+, sodium]
Specific activity (%) (DyP [3]; metal ion 5 mM): 81%

Nc1c(S(=O)(=O)[O-])cc(Nc2ccc(S(=O)(=O)[O-])c(Nc3nc(Cl)nc(Nc4cccc(S(=O)(=O)[O-])c4)n3)c2)c2c1C(=O)c1ccccc1C2=O.[Na+].[Na+].[Na+] [Reactive blue 5]
Degradation by DyP (in words) (DyP [2]): excellent degradation activity

Nc1c(S(=O)(=O)[O-])cc(Nc2cccc(S(=O)(=O)CCOS(=O)(=O)[O-])c2)c2c1C(=O)c1ccccc1C2=O.[Na+].[Na+] [Reactive blue 19]
Degradation by DyP (in words) (DyP [2]): excellent degradation activity

COc1ccc(CO)cc1OC [Veratryl alcohol, veratryl alcohol]
Degradation by DyP (in words) (DyP [1]): could never degrade; also recorded: no reaction

[Zn+2] [Zn^++, zinc]
Specific activity (%) (DyP [3]; metal ion 5 mM): 69%

Reactive blue 182
Degradation by DyP (in words) (DyP [2]): efficiently degraded

B1: DyP: peroxidase derived from Geotrichum candidum Dec 1 strain (FERM BP-7033), amino acid sequence SEQ ID NO. 7 (protein, listed as Geotrichum candidum)
chain: MDLSLFVVSVAVLVGSSSHVNAAKLGARQTRTTPLLTNFPGQAPLPTLTQHTTESGANDTILPLNNIQGDILVGMKKQKERFVFFQVNDATSFKTALKTYVPQRITSAAILISDPSQQPLAFVNLGFSNTGLQALGITDDLGDAQFPDGQFADAANLGDDLSQWVAPFTGTTIHGVFLIGSDQDDFLDQFTDDISSTFGSSITQVQALSGSARPGDQAGHEHFGFLDGISQPSVTGWETTVFPGQAVVPPGIILTGRDGDTGTRPSWALDGSFMAFRHFQQKVPEFNAYTLANAIPANSAGNLTQQEGAEFLGARMFGRWKSGAPIDLAPTADDPALGADPQRNNNFDYSDTLTDETRCPFGAHVRKTNPRQDLGGPVDTFHAMRSSIPYGPETSDAELASGVTAQDRGLLFVEYQSIIGNGFRFQQINWANNANFPFSKPITPGIEPIIGQTTPRTVGGLDPLNQNETFTVPLFVIPKGGEYFFLPSISALTATIAA
Remaining enzyme activity ([4]; stored at 30° C. for 14 days): 63% | Remaining enzyme activity ([4]; stored at 40° C. for 14 days): 41% | Remaining enzyme activity ([4]; stored at 60° C. for 3 hours): 65% | Isoelectric point (pI) (Isoelectric focusing): 3.8
